# Data taken from patent US20250361230A1, “LATS Inhibitors and Uses Thereof” (The USA, as Represented by the Secretary, Dept. of Heath …, priority 2022, published 2025).
# pIC50: −log10 of the molar value. Read-outs that look alike come from different tables or passages of the source.
# Tests used:
# Assay type in all cases: biochemical
# LATS1 = target: T1, LATS1 (Homo sapiens, UniProt O95835); assay: RBC HotSpot kinase assay (33P-ATP, P81 filter-binding), LATS1; conditions: read-out: LATS1 IC50
# T1 sequence (O95835 1-1130): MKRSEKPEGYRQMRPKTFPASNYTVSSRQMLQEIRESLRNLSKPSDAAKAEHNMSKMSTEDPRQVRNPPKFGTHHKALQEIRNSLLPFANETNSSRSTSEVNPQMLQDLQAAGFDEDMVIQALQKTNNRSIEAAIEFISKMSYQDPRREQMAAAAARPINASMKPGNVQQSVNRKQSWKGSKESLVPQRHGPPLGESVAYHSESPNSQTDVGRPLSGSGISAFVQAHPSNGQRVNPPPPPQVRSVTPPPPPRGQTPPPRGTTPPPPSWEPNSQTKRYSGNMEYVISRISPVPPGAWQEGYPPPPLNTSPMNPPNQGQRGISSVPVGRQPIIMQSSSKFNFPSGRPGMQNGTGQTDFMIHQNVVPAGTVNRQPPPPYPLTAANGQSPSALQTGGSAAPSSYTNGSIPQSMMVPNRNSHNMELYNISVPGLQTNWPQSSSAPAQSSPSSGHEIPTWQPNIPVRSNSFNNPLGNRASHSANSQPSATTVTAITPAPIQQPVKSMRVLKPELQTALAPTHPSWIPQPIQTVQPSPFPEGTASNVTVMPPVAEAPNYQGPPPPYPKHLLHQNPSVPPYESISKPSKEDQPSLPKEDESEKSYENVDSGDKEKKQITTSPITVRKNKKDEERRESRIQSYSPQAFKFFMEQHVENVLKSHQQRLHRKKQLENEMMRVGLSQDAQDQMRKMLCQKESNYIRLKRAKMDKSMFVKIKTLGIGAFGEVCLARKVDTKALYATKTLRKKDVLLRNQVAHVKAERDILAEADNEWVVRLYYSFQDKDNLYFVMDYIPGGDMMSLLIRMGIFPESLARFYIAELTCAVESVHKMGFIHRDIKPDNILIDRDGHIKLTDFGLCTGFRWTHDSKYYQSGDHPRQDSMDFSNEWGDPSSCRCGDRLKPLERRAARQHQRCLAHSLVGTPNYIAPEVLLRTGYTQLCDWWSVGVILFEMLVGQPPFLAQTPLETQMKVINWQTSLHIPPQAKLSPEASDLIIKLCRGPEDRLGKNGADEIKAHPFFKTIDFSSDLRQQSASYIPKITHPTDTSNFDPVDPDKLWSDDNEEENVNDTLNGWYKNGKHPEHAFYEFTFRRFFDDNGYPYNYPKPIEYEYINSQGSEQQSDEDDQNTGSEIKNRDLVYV
# Method in brief: (§1)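 Substrate in fresh buffer receives cofactors, then kinase, then compound in DMSO for a 20 min room-temperature preincubation. Reactions start with 33P-ATP and run 2 h; phosphorylation is read by P81 filter binding, and IC50 comes from a 10-point curve.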
# AKT = AKT (Homo sapiens, UniProt P31749); assay: RBC HotSpot kinase assay (33P-ATP, P81 filter-binding), AKT; conditions: read-out: AKT IC50
# Method in brief: as §1
# LATS2 = target: T2, LATS2 (Homo sapiens, UniProt Q9NRM7); assay: RBC HotSpot kinase assay (33P-ATP, P81 filter-binding), LATS2; conditions: read-out: LATS2 IC50
# T2 sequence (Q9NRM7 1-1088): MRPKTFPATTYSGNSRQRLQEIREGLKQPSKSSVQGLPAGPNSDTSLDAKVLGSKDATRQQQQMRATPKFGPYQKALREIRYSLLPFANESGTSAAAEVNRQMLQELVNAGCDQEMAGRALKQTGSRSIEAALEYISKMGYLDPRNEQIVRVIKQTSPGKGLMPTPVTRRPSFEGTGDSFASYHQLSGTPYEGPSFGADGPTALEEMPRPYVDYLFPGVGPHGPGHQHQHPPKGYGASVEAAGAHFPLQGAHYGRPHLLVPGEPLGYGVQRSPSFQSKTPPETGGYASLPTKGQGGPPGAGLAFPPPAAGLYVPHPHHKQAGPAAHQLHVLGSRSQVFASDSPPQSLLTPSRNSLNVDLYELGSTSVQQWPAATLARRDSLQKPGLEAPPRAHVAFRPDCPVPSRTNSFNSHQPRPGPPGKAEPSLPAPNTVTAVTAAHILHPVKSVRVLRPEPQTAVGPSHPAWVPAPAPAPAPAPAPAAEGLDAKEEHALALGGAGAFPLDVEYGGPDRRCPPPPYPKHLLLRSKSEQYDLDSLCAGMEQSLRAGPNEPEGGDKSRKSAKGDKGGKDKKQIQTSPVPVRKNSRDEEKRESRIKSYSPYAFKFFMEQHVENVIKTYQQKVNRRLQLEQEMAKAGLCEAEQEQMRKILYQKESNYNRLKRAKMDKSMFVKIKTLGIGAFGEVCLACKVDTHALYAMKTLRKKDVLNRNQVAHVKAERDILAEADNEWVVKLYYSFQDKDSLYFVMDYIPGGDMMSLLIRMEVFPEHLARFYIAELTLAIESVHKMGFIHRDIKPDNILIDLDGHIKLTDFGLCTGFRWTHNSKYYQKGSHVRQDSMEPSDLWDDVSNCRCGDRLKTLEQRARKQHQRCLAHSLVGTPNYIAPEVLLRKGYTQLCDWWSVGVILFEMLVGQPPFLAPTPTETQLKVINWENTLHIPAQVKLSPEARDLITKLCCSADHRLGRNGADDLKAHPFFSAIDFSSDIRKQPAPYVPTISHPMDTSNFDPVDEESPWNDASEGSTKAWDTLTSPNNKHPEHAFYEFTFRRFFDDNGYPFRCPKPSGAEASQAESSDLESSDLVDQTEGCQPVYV
# Method in brief: as §1
# [1] = Table 28, biochemical kinase assay
# [2] = Table 32, biochemical kinase assay
# AKT, sequence (P31749 whole entry): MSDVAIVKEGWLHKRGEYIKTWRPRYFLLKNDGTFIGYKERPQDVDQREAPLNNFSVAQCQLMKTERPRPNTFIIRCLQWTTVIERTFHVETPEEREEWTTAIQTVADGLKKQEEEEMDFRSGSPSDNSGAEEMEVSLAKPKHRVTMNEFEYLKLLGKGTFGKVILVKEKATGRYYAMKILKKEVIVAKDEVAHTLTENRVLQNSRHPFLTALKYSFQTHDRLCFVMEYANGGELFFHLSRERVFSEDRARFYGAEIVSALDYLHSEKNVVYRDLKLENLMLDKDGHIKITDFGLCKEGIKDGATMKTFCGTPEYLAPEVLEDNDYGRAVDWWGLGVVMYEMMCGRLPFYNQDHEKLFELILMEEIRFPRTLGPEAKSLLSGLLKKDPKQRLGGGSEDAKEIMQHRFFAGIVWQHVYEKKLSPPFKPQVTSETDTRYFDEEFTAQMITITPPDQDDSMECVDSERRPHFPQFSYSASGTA
SMILES,pIC50 (LATS1; [1]),pIC50 (AKT; [1]),pIC50 (LATS2; [1]),also measured
"Cc1cc(-c2ccnc3[nH]cc(F)c23)ccc1[C@@]1(O)[C@H](C)CN(C2CCOCC2)C[C@@H]1C [Compound 27, (3S,4s,5R)-4-(4-(3-fluoro-1H-pyrrolo[2,3-b]pyridin-4-yl)-2-methylphenyl)-3,5-dimethyl-1-(tetrahydro-2H-pyran-4-yl)piperidin-4-ol]",8.77,7.32,8.66,–
"NCc1ccc(-c2ccnc3[nH]ccc23)c(F)c1 [Compound 263, (3-fluoro-4-(1H-pyrrolo[2,3-b]pyridin-4-yl)phenyl) methanamine]",7.47,5.92,7.14,–
"NCC(=O)NCC(O)(c1ccc(Cl)cc1)c1ccc(-c2ccnc3[nH]ccc23)cc1 (stereo not drawn) [Compound 1020, N-(2-(4-(1H-pyrrolo[2,3-b]pyridin-4-yl)phenyl)-2-(4-chlorophenyl)-2-hydroxyethyl)-2-aminoacetamide]",–,–,–,pIC50 (LATS1; [2]): 8.52; pIC50 (AKT; [2]): 8.85; pIC50 (LATS2; [2]): 8.62
"NC(=O)c1ccc(-c2cc(-c3ccnc4[nH]ccc34)ccc2C2CCNCC2)cc1 [Compound 150, 2′-(piperidin-4-yl)-5′-(1H-pyrrolo[2,3-b]pyridin-4-yl)-[1,1′-biphenyl]-4-carboxamide]",7.48,6.01,7.59,–
"CCOCCS(=O)(=O)N1CCC(c2ccc(-c3ccnc4[nH]cc(F)c34)cc2Cl)CC1 [Compound 164, 4-(3-chloro-4-(1-((2-ethoxyethyl)sulfonyl)piperidin-4-yl)phenyl)-3-fluoro-1H-pyrrolo[2,3-b]pyridine]",< 5.00,< 5.00,< 5.00,–
"NCc1ccc(-c2ccnc3[nH]cc(-c4cccc(Cl)c4)c23)cc1 [Compound 228, (4-(3-(3-chlorophenyl)-1H-pyrrolo[2,3-b]pyridin-4-yl)phenyl) methanamine]",7.47,5.99,7.85,–
"Cc1cc(-c2ccnc3[nH]cc(F)c23)cc(F)c1[C@@]1(O)[C@H](C)CN(C(=O)C2(N)CC(F)(F)C2)C[C@@H]1C [Compound 62, (1-amino-3,3-difluorocyclobutyl) ((3S,4s,5R)-4-(2-fluoro-4-(3-fluoro-1H-pyrrolo[2,3-b]pyridin-4-yl)-6-methylphenyl)-4-hydroxy-3,5-dimethylpiperidin-1-yl)methanone]",7.71,5.23,8.37,–
"Cc1cc(-c2ccnc3[nH]cc(F)c23)cc(F)c1[C@@]1(O)[C@H](C)CN(C(=O)[C@@H]2C[C@H](F)CN2)C[C@@H]1C [Compound 65, ((3S,4R,5R)-4-(2-fluoro-4-(3-fluoro-1H-pyrrolo[2,3-b]pyridin-4-yl)-6-methylphenyl)-4-hydroxy-3,5-dimethylpiperidin-1-yl)((2S,4S)-4-fluoropyrrolidin-2-yl)methanone]",8.06,5.93,8.49,–
"N#Cc1c[nH]c2nccc(-c3ccc(C4(O)CCNCC4)cc3)c12 [Compound 2001, 4-(4-(4-hydroxypiperidin-4-yl)phenyl)-1H-pyrrolo[2,3-b]pyridine-3-carbonitrile]",–,–,–,pIC50 (LATS1; biochemical kinase inhibition): 8.48; pIC50 (AKT; biochemical kinase inhibition): 6.56; pIC50 (LATS2; biochemical kinase inhibition): 8.48
"NCC(=O)NCC(=O)NCC(O)(c1ccc(Cl)cc1)c1ccc(-c2ccnc3[nH]ccc23)cc1 (stereo not drawn) [Compound 1025, N-(2-(4-(1H-pyrrolo[2,3-b]pyridin-4-yl)phenyl)-2-(4-chlorophenyl)-2-hydroxyethyl)-2-(2-aminoacetamido)acetamide]",–,–,–,pIC50 (LATS1; [2]): 8.39; pIC50 (AKT; [2]): 8.51; pIC50 (LATS2; [2]): 8.35
"CC1CC(O)(c2ccc(-c3ccnc4[nH]cc(F)c34)cc2Cl)CCN1 (stereo not drawn) [Compound 98, 4-(2-chloro-4-(3-fluoro-1H-pyrrolo[2,3-b]pyridin-4-yl)phenyl)-2-methylpiperidin-4-ol]",7.62,6.42,7.43,–
"CC(C)(N)c1ccc(-c2ccnc3[nH]cc(Br)c23)cc1 [Compound 210, 2-(4-(3-bromo-1H-pyrrolo[2,3-b]pyridin-4-yl)phenyl)propan-2-amine]",7.62,6.48,8.33,–
"C=C(C)c1c[nH]c2nccc(-c3ccc(CN)cc3)c12 [Compound 241, (4-(3-(prop-1-en-2-yl)-1H-pyrrolo[2,3-b]pyridin-4-yl)phenyl) methanamine]",7.72,6.09,8.22,–
"O=C1NCCc2cc(-c3ccnc4[nH]ccc34)ccc21 [Compound 260, 6-(1H-pyrrolo[2,3-b]pyridin-4-yl)-3,4-dihydroisoquinol in-1(2H)-one]",7.06,5.18,7.28,–
"CC(C)(O)C(=O)NCC(O)(c1ccc(Cl)cc1)c1ccc(-c2ccnc3[nH]ccc23)cc1 (stereo not drawn) [Compound 1018, N-(2-(4-(1H-pyrrolo[2,3-b]pyridin-4-yl)phenyl)-2-(4-chlorophenyl)-2-hydroxyethyl)-2-hydroxy-2-methylpropanamide]",–,–,–,pIC50 (LATS1; [2]): 7.73; pIC50 (AKT; [2]): 7.13; pIC50 (LATS2; [2]): 8.00
"CCc1cc(-c2ccnc3[nH]cc(F)c23)ccc1[C@@]1(O)[C@H](C)CNC[C@@H]1C [Compound 302, (3S,4s,5R)-4-(2-ethyl-4-(3-fluoro-1H-pyrrolo[2,3-b]pyridin-4-yl)phenyl)-3,5-dimethylpiperidin-4-ol]",8.06,7.40,8.31,–
"CN1CCC(O)(c2ccc(-c3ccnc4[nH]ccc34)cc2)CC1 [Compound 132, 4-(4-(1H-pyrrolo[2,3-b]pyridin-4-yl)phenyl)-1-methylpiperidin-4-ol]",8.54,6.31,8.24,–
"N#Cc1cc(C2CCNCC2)ccc1-c1ccnc2[nH]ccc12 [Compound 174, 5-(piperidin-4-yl)-2-(1H-pyrrolo[2,3-b]pyridin-4-yl)benzonitrile]",5.31,5.05,5.62,–
"CN(C)C(C)(C)c1ccc(-c2ccnc3[nH]cc(F)c23)cc1 [Compound 208, 2-(4-(3-fluoro-1H-pyrrolo[2,3-b]pyridin-4-yl)phenyl)-N,N-dimethylpropan-2-amine]",8.08,6.46,7.82,–
